Reference: US8697648B2, “Protein agent for diabetes treatment and β cell imaging” (Georgia State University Research Foundation, Inc., priority 2009, dated 2014)
Blank lines part the entries; values can stand above or below the molecule they belong to.

What was measured:
[1] = R1 and R2 relaxivity with a relaxometer; assay type: physicochemical; conditions: 1.4 T
Protocol: To ensure that the fusion protein is applicable as a MRI contrast agent, the Gd^3+ binding property and R1/R2 relaxivity of the fusion protein were tested using well-known methods.

[2] = cited from earlier work
[3] = test system: diabetic mice; experiment: Blood glucose and glucose-dependent insulin secretion after co-administration with glucose (Example 16); assay type: in vivo; conditions: 25 nmole/kg agent with 15 mmole/kg glucose i.p.
Protocol: FIG. 12 is a pair of graphs showing the changes in Δ blood glucose (Upper panel) and Δ insulin (bottom panel) in a group of 8 diabetic mice at different time points after injection of 15 mmole/kg of glucose with 25 nmole/kg of different agents.
The effects of the developed agent on blood glucose lowering and stimulating of the glucose-dependent insulin secretion in diabetic mice were also examined. The animals first fasted for 6 hours. The protein agent (25 nmole/kg) and glucose (15 mmole/kg) were co-administrated via intraperitoneal injection with a group of eight diabetic mice. The blood glucose and insulin levels were measured at different time points. As controls, the same dose of glucose was administrated alone and co-administrated with the parental protein calbindin in separate groups of diabetic mice.

[4] = test system: Diabetic mice (BKS.Cg-Lepr^db/db); experiment: Blood glucose lowering in fed diabetic mice (Example 15); assay type: in vivo
Protocol: The animals were re-feed for 25 minutes 5 hours after drug administration and 35 minutes before the last time point of blood sample collection. The A Blood Glucose (mg/dl) was determined by calculating the difference between the measured blood glucose levels at any given time point and the initial blood glucose levels. The initial blood glucose levels were measured after feeding for 20 min and before the drug administration (time zero). The error bars represent standard deviations of measurements of eight mice.
The developed protein agent was tested to determine whether it had the in vivo capability of lowering blood glucose in diabetic subjects. Diabetic mice (BKS.Cg-Lepr^db/db, The Jackson Laboratory) were used as test subjects. A group of six animals first fasted for 6 hours. After fasting, the animals were fed for 30 minutes. The protein agent was administered after feeding by intraperitoneal injection at a dose of 25 nmole/kg. The animals were fed again for 30 mins, 5 hrs after agent administration. Blood samples were taken at different time points after administration of the agent. Glucose concentration in the blood samples was measured using a commercially available kit.

R1 [1]: 3.8 mM^−1S^−1
Molecule: O=C(O)CN(CCN(CC(=O)O)CC(=O)O)CCN(CC(=O)O)CC(=O)O (Gd complex, metal not drawn) [DTPA, reference compound]

Molecule: CC[C@H](C)[C@H](NC(=O)[C@H](Cc1ccccc1)NC(=O)[C@H](CCC(=O)O)NC(=O)[C@H](CCCCN)NC(=O)[C@H](C)NC(=O)[C@H](C)NC(=O)[C@H](CCC(N)=O)NC(=O)CNC(=O)[C@H](CCC(=O)O)NC(=O)[C@H](CC(C)C)NC(=O)[C@H](Cc1ccc(O)cc1)NC(=O)[C@H](CO)NC(=O)[C@H](CO)NC(=O)[C@@H](NC(=O)[C@H](CC(=O)O)NC(=O)[C@H](CO)NC(=O)[C@@H](NC(=O)[C@H](Cc1ccccc1)NC(=O)[C@@H](NC(=O)CNC(=O)[C@H](CCC(=O)O)NC(=O)[C@H](C)NC(=O)[C@@H](N)Cc1c[nH]cn1)[C@@H](C)O)[C@@H](C)O)C(C)C)C(=O)N[C@@H](C)C(=O)N[C@@H](Cc1c[nH]c2ccccc12)C(=O)N[C@@H](CC(C)C)C(=O)N[C@H](C(=O)N[C@@H](CCCCN)C(=O)NCC(=O)N[C@@H](CCCNC(=N)N)C(N)=O)C(C)C [GLP-1 peptide]
circulation time ([2]; degradation by DPP-4): less than 2 minutes

Molecule: CCCCCCCCCCCCCCCC(=O)N[C@@H](CCC(=O)NCCCC[C@H](NC(=O)[C@H](C)NC(=O)[C@H](C)NC(=O)[C@H](CCC(N)=O)NC(=O)CNC(=O)[C@H](CCC(=O)O)NC(=O)[C@H](CC(C)C)NC(=O)[C@H](Cc1ccc(O)cc1)NC(=O)[C@H](CO)NC(=O)[C@H](CO)NC(=O)[C@@H](NC(=O)[C@H](CC(=O)O)NC(=O)[C@H](CO)NC(=O)[C@@H](NC(=O)[C@H](Cc1ccccc1)NC(=O)[C@@H](NC(=O)CNC(=O)[C@H](CCC(=O)O)NC(=O)[C@H](C)NC(=O)[C@@H](N)Cc1cnc[nH]1)[C@@H](C)O)[C@@H](C)O)C(C)C)C(=O)N[C@@H](CCC(=O)O)C(=O)N[C@@H](Cc1ccccc1)C(=O)N[C@H](C(=O)N[C@@H](C)C(=O)N[C@@H](Cc1c[nH]c2ccccc12)C(=O)N[C@@H](CC(C)C)C(=O)N[C@H](C(=O)N[C@@H](CCCNC(=N)N)C(=O)NCC(=O)N[C@@H](CCCNC(=N)N)C(=O)NCC(=O)O)C(C)C)[C@@H](C)CC)C(=O)O [Liraglutide]
blood circulation time ([2]; in vivo): more than 10 hr

Molecule: Exendin 4 [reference compound]
time of immediate insulin increase and glucose decrease [3]: ≤ 30 min
drop of blood glucose levels ([4]; 25 nmole/kg i.p., within 30 minutes): about 189 mg/dl
blood glucose levels after re-feed ([4]; 6 hours post administration, one hour after re-feed): almost reached the same blood glucose levels before the drug treatments

B1: Cal.GLP/Q26D: Q26D variant of the Cal.GLP fusion protein; SEQ ID NO: 18 (protein)
chain: MSTKKSPEELKRIFEKYAAKEGDPDDLSKDELKLLIQAEFPCLLKGPNTLDDLFQELDKNGHAEGTFTSDVSSYLEGQAAKEFIAWLVKGR
R1 [1]: 20 mM^−1S^−1
